# Laboratory results as given in US9993494B2, “Compositions and methods for treating fibrotic disease” (eFFECTOR Therapeutics, Inc., priority 2014, dated 2018).
# System: normal human lung fibroblasts
# Assay: Ribosomal profiling: translational efficiency in TGFβ-treated fibroblasts
# Assay type: cell-based
# In short: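 Cells lysed on ice after a cold PBS wash containing cycloheximide. Ribosome-protected fragments and total mRNA were prepared with the ARTseq kit and sequenced by RNA-Seq. Reads were trimmed, mapped to the human genome and counted uniquely over coding regions per gene, with low-count genes excluded before differential translational-efficiency analysis.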
smiles,measurement,setting,value
CC(C)n1nc(-c2cc3cc(O)ccc3[nH]2)c2c(N)ncnc21 [PP242],renormalizing the translational profile of RHOBTB3,"ENSG00000164292, TGFβ-treated fibroblasts",− (− = <0.9)
same,renormalizing the translational profile of HCN1,"ENSG00000164588, TGFβ-treated fibroblasts",− (− = <0.9)
same,renormalizing the translational profile of RPL36AL,"ENSG00000165502, TGFβ-treated fibroblasts",− (− = <0.9)
same,renormalizing the translational profile of RPL27A,"ENSG00000166441, TGFβ-treated fibroblasts",− (− = <0.9)
same,renormalizing the translational profile of RP11-382A20.3.1,"ENSG00000166503, TGFβ-treated fibroblasts",− (− = <0.9)
same,renormalizing the translational profile of ANKDD1A,"ENSG00000166839, TGFβ-treated fibroblasts",+ (+ = 0.9 to 1.5)
same,renormalizing the translational profile of RPL13,"ENSG00000167526, TGFβ-treated fibroblasts",− (− = <0.9)
same,renormalizing the translational profile of EEF2,"ENSG00000167658, TGFβ-treated fibroblasts",+ (+ = 0.9 to 1.5)
same,renormalizing the translational profile of CA5B,"ENSG00000169239, TGFβ-treated fibroblasts",+ (+ = 0.9 to 1.5)
same,renormalizing the translational profile of MURC,"ENSG00000170681, TGFβ-treated fibroblasts",− (− = <0.9)
same,renormalizing the translational profile of HTRA3,"ENSG00000170801, TGFβ-treated fibroblasts",− (− = <0.9)
same,renormalizing the translational profile of PDE7B,"ENSG00000171408, TGFβ-treated fibroblasts",− (− = <0.9)
same,renormalizing the translational profile of LPAR3,"ENSG00000171517, TGFβ-treated fibroblasts",− (− = <0.9)
same,renormalizing the translational profile of CTPS,"ENSG00000171793, TGFβ-treated fibroblasts",− (− = <0.9)
same,renormalizing the translational profile of QARS,"ENSG00000172053, TGFβ-treated fibroblasts",− (− = <0.9)
same,renormalizing the translational profile of RPL38,"ENSG00000172809, TGFβ-treated fibroblasts",− (− = <0.9)
same,renormalizing the translational profile of MRPL45,"ENSG00000174100, TGFβ-treated fibroblasts",+ (+ = 0.9 to 1.5)
same,renormalizing the translational profile of RPL4,"ENSG00000174444, TGFβ-treated fibroblasts",− (− = <0.9)
same,renormalizing the translational profile of RPL15,"ENSG00000174748, TGFβ-treated fibroblasts",− (− = <0.9)
same,renormalizing the translational profile of DES,"ENSG00000175084, TGFβ-treated fibroblasts",− (− = <0.9)
same,renormalizing the translational profile of EIF3F,"ENSG00000175390, TGFβ-treated fibroblasts",− (− = <0.9)
same,renormalizing the translational profile of CLCF1,"ENSG00000175505, TGFβ-treated fibroblasts",− (− = <0.9)
same,renormalizing the translational profile of AMIGO3,"ENSG00000176020, TGFβ-treated fibroblasts",− (− = <0.9)
same,renormalizing the translational profile of C14orf49,"ENSG00000176438, TGFβ-treated fibroblasts",− (− = <0.9)
same,renormalizing the translational profile of RPLP2,"ENSG00000177600, TGFβ-treated fibroblasts",− (− = <0.9)
same,renormalizing the translational profile of IMPDH2,"ENSG00000178035, TGFβ-treated fibroblasts",− (− = <0.9)
same,renormalizing the translational profile of DNAJC22,"ENSG00000178401, TGFβ-treated fibroblasts",+ (+ = 0.9 to 1.5)
same,renormalizing the translational profile of RPL35A,"ENSG00000182899, TGFβ-treated fibroblasts",+ (+ = 0.9 to 1.5)
same,renormalizing the translational profile of LENG9,"ENSG00000182909, TGFβ-treated fibroblasts",− (− = <0.9)
same,renormalizing the translational profile of C22orf32,"ENSG00000183172, TGFβ-treated fibroblasts",− (− = <0.9)
same,renormalizing the translational profile of NPW,"ENSG00000183971, TGFβ-treated fibroblasts",− (− = <0.9)
same,renormalizing the translational profile of PDE4B,"ENSG00000184588, TGFβ-treated fibroblasts",− (− = <0.9)
same,renormalizing the translational profile of ROBO2,"ENSG00000185008, TGFβ-treated fibroblasts",− (− = <0.9)
same,renormalizing the translational profile of PTCH1,"ENSG00000185920, TGFβ-treated fibroblasts",− (− = <0.9)
same,renormalizing the translational profile of POLR1D,"ENSG00000186184, TGFβ-treated fibroblasts",− (− = <0.9)
same,renormalizing the translational profile of DYNC2H1,"ENSG00000187240, TGFβ-treated fibroblasts",− (− = <0.9)
same,renormalizing the translational profile of RPL14,"ENSG00000188846, TGFβ-treated fibroblasts",− (− = <0.9)
same,renormalizing the translational profile of LRRK2,"ENSG00000188906, TGFβ-treated fibroblasts",− (− = <0.9)
same,renormalizing the translational profile of NACA,"ENSG00000196531, TGFβ-treated fibroblasts",− (− = <0.9)
same,renormalizing the translational profile of LAMB3,"ENSG00000196878, TGFβ-treated fibroblasts",− (− = <0.9)
same,renormalizing the translational profile of PCBP2,"ENSG00000197111, TGFβ-treated fibroblasts",− (− = <0.9)
same,renormalizing the translational profile of MAP3K5,"ENSG00000197442, TGFβ-treated fibroblasts",− (− = <0.9)
same,renormalizing the translational profile of RPL37A,"ENSG00000197756, TGFβ-treated fibroblasts",− (− = <0.9)
same,renormalizing the translational profile of RPL12,"ENSG00000197958, TGFβ-treated fibroblasts",− (− = <0.9)
same,renormalizing the translational profile of LPAR1,"ENSG00000198121, TGFβ-treated fibroblasts",− (− = <0.9)
same,renormalizing the translational profile of RPL23A,"ENSG00000198242, TGFβ-treated fibroblasts",− (− = <0.9)
same,renormalizing the translational profile of PLN,"ENSG00000198523, TGFβ-treated fibroblasts",− (− = <0.9)
same,renormalizing the translational profile of RPL10A,"ENSG00000198755, TGFβ-treated fibroblasts",− (− = <0.9)
same,renormalizing the translational profile of CES1,"ENSG00000198848, TGFβ-treated fibroblasts",− (− = <0.9)
same,renormalizing the translational profile of RPL39,"ENSG00000198918, TGFβ-treated fibroblasts",− (− = <0.9)
same,renormalizing the translational profile of CARD16,"ENSG00000204397, TGFβ-treated fibroblasts",− (− = <0.9)
same,renormalizing the translational profile of GNB2L1,"ENSG00000204628, TGFβ-treated fibroblasts",+ (+ = 0.9 to 1.5)
same,renormalizing the translational profile of RPL17,"ENSG00000215472, TGFβ-treated fibroblasts",− (− = <0.9)
same,renormalizing the translational profile of RPL41,"ENSG00000229117, TGFβ-treated fibroblasts",− (− = <0.9)
same,renormalizing the translational profile of ARPC1A,"ENSG00000241685, TGFβ-treated fibroblasts",− (− = <0.9)
same,renormalizing the translational profile of CHCHD10,"ENSG00000250479, TGFβ-treated fibroblasts",+++ (+++ = >2.0)
same,renormalizing the translational profile of EEF1G,"ENSG00000254772, TGFβ-treated fibroblasts",− (− = <0.9)
same,number of the 141 eIF2 pathway genes that moved toward normal,"TGFβ and PP242, of 141 genes, FIG. 8",104
same,"number of the 12 eIF2 signaling pathway genes that moved toward the untransformed, normal state","TGFβ and PP242, out of 12 genes, FIG. 7",11
same,effect in renormalizing the translational profile of the gene,"gene RPS2 (ENSG00000140988), TGFβ-treated fibroblasts",− (− = <0.9)
same,effect in renormalizing the translational profile of the gene,"gene RPS3 (ENSG00000149273), TGFβ-treated fibroblasts",− (− = <0.9)
same,effect in renormalizing the translational profile of the gene,"gene RPS3A (ENSG00000145425), TGFβ-treated fibroblasts",− (− = <0.9)
same,effect in renormalizing the translational profile of the gene,"gene RPS4X (ENSG00000198034), TGFβ-treated fibroblasts",− (− = <0.9)
same,effect in renormalizing the translational profile of the gene,"gene RPS4Y1 (ENSG00000129824), TGFβ-treated fibroblasts",− (− = <0.9)
same,effect in renormalizing the translational profile of the gene,"gene RPS5 (ENSG00000083845), TGFβ-treated fibroblasts",− (− = <0.9)
same,effect in renormalizing the translational profile of the gene,"gene RPS6 (ENSG00000137154), TGFβ-treated fibroblasts",− (− = <0.9)
